Results from PubChem BioAssay AID328 (DTP/NCI, 2004).
Values joined by “and” are separate entries in the source; they are usually repeats but may differ in a detail not shown here. Equal values may be shown once. Toxic doses and inconclusive results are not listed.

Tested on: BDF1 mice, P388 leukemia ip, median survival T/C
Assay: NCI In Vivo Anticancer Drug Screen. Data for tumor model P388 Leukemia (intraperitoneal) in B6D2F1 (BDF1) mice
Settings: endpoint: median survival time, higher = longer survival
Method in brief: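 Read-out is survival of treated animals expressed relative to the vehicle group, as a T/C ratio.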

[1] = dose: 50.0 mg/kg/injection, schedule: Q01DX009 (ip), vehicle: saline with Tween-80
[2] = dose: 100.0 mg/kg/injection, schedule: Q01DX009 (ip), vehicle: saline with Tween-80
[3] = dose: 200.0 mg/kg/injection, schedule: Q01DX009 (ip), vehicle: saline with Tween-80
[4] = dose: 400.0 mg/kg/injection, schedule: Q01DX009 (ip), vehicle: saline with Tween-80

Compound: CCN(CC)C(N)=Nc1ccc(NC(=O)c2ccc(C(=O)Nc3ccc(N=C(N)N(CC)CC)cc3)cc2)cc1
- T/C (dose: 3.12 mg/kg/injection, schedule: Q01DX009 (ip), vehicle: saline): 151 % of control
- T/C (dose: 6.25 mg/kg/injection, schedule: Q01DX009 (ip), vehicle: saline): 196 % of control
- T/C (dose: 12.5 mg/kg/injection, schedule: Q01DX009 (ip), vehicle: saline): 105 % of control

Compound: CCCCCCCCCC(=O)NC(COC1OC(CO)C(O)C(O)C1O)C(O)c1ccccc1 (configuration not stated)
- T/C (dose: 25.0 mg/kg/injection, schedule: Q01DX009 (ip), vehicle: suspension in saline): 98 % of control
- T/C (dose: 50.0 mg/kg/injection, schedule: Q01DX009 (ip), vehicle: suspension in saline): 108 % of control
- T/C (dose: 100.0 mg/kg/injection, schedule: Q01DX009 (ip), vehicle: suspension in saline): 102 % of control

Compound: OC1CCCC12CC2 (configuration not stated)
- T/C [1]: 100 % of control
- T/C [2]: 102 % of control

Compound: Cc1cc(-c2ccc(Br)cc2)[n+](C)n1C
- T/C (dose: 12.5 mg/kg/injection, schedule: Q01DX009 (ip), vehicle: saline with Tween-80): 102 % of control
- T/C (dose: 25.0 mg/kg/injection, schedule: Q01DX009 (ip), vehicle: saline with Tween-80): 107 % of control
- T/C [1]: 111 % of control

Compound: COC(=O)C(CSCSC)NC(=O)/C=C\c1ccccc1 (configuration not stated)
- T/C [1]: 100 % of control
- T/C [2]: 104 % of control
- T/C (dose: 100.0 mg/kg/injection, schedule: Q04DX003 (ip), vehicle: saline with Tween-80): 95 % of control
- T/C [3]: 109 % of control
- T/C (dose: 200.0 mg/kg/injection, schedule: Q04DX003 (ip), vehicle: saline with Tween-80): 91 % of control
- T/C [4]: 90 % of control

Compound: OCC1CSC2(CCCCC2)N1 (configuration not stated)
- T/C [1]: 105 % of control
- T/C [2]: 105 % of control
- T/C [3]: 93 % of control

Compound: NC(CSCc1ccc(N(CCCl)CCCl)cc1)C(=O)O (configuration not stated)
- T/C (dose: 1.2 mg/kg/injection, schedule: Q04DX003 (ip), vehicle: Klucel (hydroxypropylcellulose) (HPC)): 95 % of control
- T/C (dose: 2.6 mg/kg/injection, schedule: Q04DX003 (ip), vehicle: Klucel (hydroxypropylcellulose) (HPC)): 154 % of control
- T/C (dose: 4.0 mg/kg/injection, schedule: Q01DX009 (ip), vehicle: saline with Tween-80): 183 % of control
- T/C (dose: 6.0 mg/kg/injection, schedule: Q01DX009 (ip), vehicle: saline with Tween-80): 206 % of control
- T/C (dose: 6.0 mg/kg/injection, schedule: Q04DX003 (ip), vehicle: Klucel (hydroxypropylcellulose) (HPC)): 154 % of control
- T/C (dose: 9.0 mg/kg/injection, schedule: Q01DX009 (ip), vehicle: saline with Tween-80): 223 % of control
- T/C (dose: 13.0 mg/kg/injection, schedule: Q04DX003 (ip), vehicle: Klucel (hydroxypropylcellulose) (HPC)): 190 % of control
- T/C (dose: 20.0 mg/kg/injection, schedule: Q04DX003 (ip), vehicle: Klucel (hydroxypropylcellulose) (HPC)): 204 % of control
- T/C (dose: 22.0 mg/kg/injection, schedule: Q01DX009 (ip), vehicle: Klucel (hydroxypropylcellulose) (HPC)): 272 % of control
- T/C (dose: 30.0 mg/kg/injection, schedule: Q04DX003 (ip), vehicle: Klucel (hydroxypropylcellulose) (HPC)): 238 % of control and 272 % of control
- T/C (dose: 33.0 mg/kg/injection, schedule: Q01DX009 (ip), vehicle: Klucel (hydroxypropylcellulose) (HPC)): 231 % of control
- T/C (dose: 44.0 mg/kg/injection, schedule: Q04DX003 (ip), vehicle: Klucel (hydroxypropylcellulose) (HPC)): 238 % of control
- T/C (dose: 50.0 mg/kg/injection, schedule: Q01DX009 (ip), vehicle: Klucel (hydroxypropylcellulose) (HPC)): 240 % of control and 250 % of control
- T/C (dose: 67.0 mg/kg/injection, schedule: Q04DX003 (ip), vehicle: Klucel (hydroxypropylcellulose) (HPC)): 235 % of control and 223 % of control
- T/C (dose: 75.0 mg/kg/injection, schedule: Q01DX009 (ip), vehicle: Klucel (hydroxypropylcellulose) (HPC)): 104 % of control
- T/C (dose: 100.0 mg/kg/injection, schedule: Q04DX003 (ip), vehicle: Klucel (hydroxypropylcellulose) (HPC)): 220 % of control
- T/C (dose: 150.0 mg/kg/injection, schedule: Q04DX003 (ip), vehicle: Klucel (hydroxypropylcellulose) (HPC)): 160 % of control

Compound: CC1CC(N)=NC1C(=O)NCCC#N (configuration not stated)
- T/C [2]: 98 % of control
- T/C [4]: 98 % of control

Compound: CSc1ccc(O)c(S)c1
- T/C [1]: 118 % of control
- T/C [2]: 122 % of control
- T/C [3]: 124 % of control
